Reference: publication PMC9065877, “Safety, tolerability and pharmacokinetics of the oligomer modulator anle138b with exposure levels sufficient for therapeutic efficacy in a murine Parkinson model: A randomised, double-blind, placebo-controlled phase 1a trial” (EBioMedicine, 2022)

Tests used:
[1] = Safety and tolerability (adverse events, laboratory, vital signs, ECG) in phase 1a trial in healthy subjects; format: in vivo, human
Protocol: The primary objective was to assess the safety and tolerability of single (SAD) and multiple (MAD) ascending doses of anle138b to healthy subjects in the fasted state and to assess the safety and tolerability of single doses of anle138b in both the fasted and fed state (FES). To this end, adverse events (AEs), clinical laboratory tests, vital signs, electrocardiograms (ECGs), QT interval corrected for heart rate using Fridericia's formula (QTcF), and physical examination findings were recorded. Participants were instructed to report all potential AEs immediately to the on-site personnel and were assessed by a physician before each dose of study drug. In addition, a physical examination of the relevant body system was performed in the event that a subject reports any new symptoms or AEs. AEs were defined following standard criteria, which are described in the protocol. The detailed parameters and sampling schedule regarding haematology, clinical chemistry, ECG, blood pressure, heart rate and PK are provided in the supplement (supplement 3). Any clinically significant abnormality in these assessments, including changes from baseline, were needed to be reported as an AE.
AEs and medications were coded using the Medical Dictionary for Regulatory Activities (MedDRA) (v22·1). An independent coding review was performed within the Data Sciences department. Clinical chemistry and haematology data (and other safety laboratory data) were collected by a central laboratory (The Doctors Laboratory) and transferred electronically to Quotient Sciences. The list of parameters is provided in supplement 2. All demographic details and sample dates were cross-referenced with the corresponding data on the study database. Data was monitored by an external entity (Wirral Clinical Consultancy Ltd, Heswall, UK). Monitoring included the conduct of a site initiation visit, interim monitoring visits and a close-out visit. The database was closed after all queries had been resolved.
The study was exploratory and no formal sample size calculation was made. Based on experience from previous studies of similar design, eight subjects per cohort were enrolled for parts 1 (SAD) and 2 (MAD) and a total of twelve subjects for part 3 (FES). Populations and analysis sets were determined for safety and PK data after database lock using the criteria defined in the reporting and analysis plan. The safety population and safety analysis set for SAD and MAD were defined after database lock but prior to study unblinding. Statistical analysis and production of summary tables, figures and listings for all safety data (AEs, vital signs, ECGs and safety laboratory assessments) including changes from baseline as required in this study were performed using the statistical package SAS (v9·4). Additional statistics was provided for PK-related data including coefficient of variation (CV%), geometric mean, geometric CV%, and the number n of subjects that were included in the natural logarithmic transformation). In SAD and MAD, dose proportionality was assessed. Formal statistical analysis was performed on the log-transformed PK parameters AUC(0-last), AUC(0-inf), and Cmax for SAD (day 1), and AUC(0-tau) and Cmax for MAD (day 1 and day 7) to assess dose proportionality using the following power model: loge (AUC or Cmax) = µ + βx loge (dose). The estimate obtained for β is a measure of dose proportionality. The estimate of β together with its 90% confidence interval (CI) (βl, βu) was used to quantify the degree of non-proportionality. In MAD, formal statistical analysis was performed on the PK parameters AUC(0-tau) and Cmax to assess dose accumulation. Log-transformed AUC(0-tau) and Cmax was subjected to a mixed-effects model with treatment (dose level), day (day 1 or 7) and treatment-by-day interaction as fixed effects and subject as a random effect. […]

[2] = Blood levels of anle138b after chronic dosing (14 days) in food pellets; format: in vivo; set-up: dose or concentration left out as unconfirmed; settings: mouse, oral, doses of ≥11·, read-out: AUC0-24 exposure
Protocol: Based on the analysis of blood levels of anle138b after chronic dosing (14 days) using the same formulation (anle138b in food pellets), doses of ≥11·1 mg/kg/day correspond to an AUC0-24 exposure of ≥ 300 ng*h/ml.

[3] = Food effect cohort, anle138b 150 mg fed and fasted, N=12
[4] = MAD cohorts, anle138b 100-300 mg QD 7 days, N=18
[5] = SAD cohorts, anle138b 50-300 mg single dose, N=24

Brc1cccc(-c2cc(-c3ccc4c(c3)OCO4)n[nH]2)c1 [anle138b, 3-(1,3-benzodioxol-5-yl)-5-(3-bromophenyl)-1H-pyrazole]
Dose dependency of AE reporting ([1]; 50 to 300 mg): no dose dependency | Adverse events by attribution to study treatment: Definite, number of events ([1]; Food effect cohort, N=12): 0 | Adverse events by attribution to study treatment: Not related, number of events (%) ([1]; Food effect cohort, N=12): 6 (100) | Adverse events by attribution to study treatment: Possible, number of events (%) ([1]; Food effect cohort, N=12): 0 | Adverse events by attribution to study treatment: Probable, number of events ([1]; Food effect cohort, N=12): 0 | Adverse events by grade: Mild, number of events (%) ([1]; Food effect cohort, N=12): 6 (100) | Adverse events by grade: Moderate, number of events (%) ([1]; Food effect cohort, N=12): 0 | Adverse events by outcome: Recovered, number of events (%) ([1]; Food effect cohort, N=12): 6 (100) | Eye disorders (ocular hyperaemia, vision blurred): number of events [patients affected %] ([1]; Food effect cohort, N=12): 0 | Gastrointestinal disorders (diarrhea, nausea): number of events [patients affected %] ([1]; Food effect cohort, N=12): 0 | General disorders and administration site conditions (Chest discomfort, fatigue, medical device site reaction): number of events [patients affected %] ([1]; Food effect cohort, N=12): 1 [8·3] | Infections and infestations (Nasopharyngitis, rhinitis): number of events [patients affected %] ([1]; Food effect cohort, N=12): 0 | Injury, poisoning and procedural complications (procedural dizziness): number of events [patients affected %] ([1]; Food effect cohort, N=12): 2 [16·7] | Musculosceletal and connective tissue disorders (Back pain): number of events [patients affected %] ([1]; Food effect cohort, N=12): 0 | Nervous system disorders (headache, paraestesia): number of events [patients affected %] ([1]; Food effect cohort, N=12): 3 [25] | Psychiatric disorders (abnormal dreams): number of events [patients affected %] ([1]; Food effect cohort, N=12): 0 | Number of patients with adverse event(s) [%] [1, 3]: 5 [41·7] | Number of patients with no adverse event [%] [1, 3]: 7 [58·3] | Adverse events by attribution to study treatment: Definite, number of events ([1]; MAD cohorts, N=18): 0 | Adverse events by attribution to study treatment: Not related, number of events (%) ([1]; MAD cohorts, N=18): 9 (90) | Adverse events by attribution to study treatment: Possible, number of events (%) ([1]; MAD cohorts, N=18): 1 (10) | Adverse events by attribution to study treatment: Probable, number of events ([1]; MAD cohorts, N=18): 0 | Adverse events by grade: Mild, number of events (%) ([1]; MAD cohorts, N=18): 9 (90) | Adverse events by grade: Moderate, number of events (%) ([1]; MAD cohorts, N=18): 1 (10) | Adverse events by outcome: Recovered, number of events (%) ([1]; MAD cohorts, N=18): 10 (100) | Eye disorders (ocular hyperaemia, vision blurred): number of events [patients affected %] ([1]; MAD cohorts, N=18): 1 [5·6] | Gastrointestinal disorders (diarrhea, nausea): number of events [patients affected %] ([1]; MAD cohorts, N=18): 1 [5·6] | General disorders and administration site conditions (Chest discomfort, fatigue, medical device site reaction): number of events [patients affected %] ([1]; MAD cohorts, N=18): 1 [5·6] | Infections and infestations (Nasopharyngitis, rhinitis): number of events [patients affected %] ([1]; MAD cohorts, N=18): 1 [5·6] | Injury, poisoning and procedural complications (procedural dizziness): number of events [patients affected %] ([1]; MAD cohorts, N=18): 0 | Musculosceletal and connective tissue disorders (Back pain): number of events [patients affected %] ([1]; MAD cohorts, N=18): 2 [11·1] | Nervous system disorders (headache, paraestesia): number of events [patients affected %] ([1]; MAD cohorts, N=18): 4 [16·7] | Psychiatric disorders (abnormal dreams): number of events [patients affected %] ([1]; MAD cohorts, N=18): 0 | Number of patients with adverse event(s) [%] [1, 4]: 6 [33·3] | Number of patients with no adverse event [%] [1, 4]: 12 [66·7] | Moderate AE ([1]; MAD part, 100 mg anle138b): an episode of back pain | AE considered possibly related to the study medication ([1]; MAD part, 200 mg anle138b, assessed prior to unblinding): one event of headache | Adverse events by attribution to study treatment: Definite, number of events ([1]; SAD cohorts, N=24): 0 | Adverse events by attribution to study treatment: Not related, number of events (%) ([1]; SAD cohorts, N=24): 5 (100) | Adverse events by attribution to study treatment: Possible, number of events (%) ([1]; SAD cohorts, N=24): 0 | Adverse events by attribution to study treatment: Probable, number of events ([1]; SAD cohorts, N=24): 0 | Adverse events by grade: Mild, number of events (%) ([1]; SAD cohorts, N=24): 5 (100) | Adverse events by grade: Moderate, number of events (%) ([1]; SAD cohorts, N=24): 0 | Adverse events by outcome: Recovered, number of events (%) ([1]; SAD cohorts, N=24): 5 (100) | Eye disorders (ocular hyperaemia, vision blurred): number of events [patients affected %] ([1]; SAD cohorts, N=24): 1 [4·2] | Gastrointestinal disorders (diarrhea, nausea): number of events [patients affected %] ([1]; SAD cohorts, N=24): 0 | General disorders and administration site conditions (Chest discomfort, fatigue, medical device site reaction): number of events [patients affected %] ([1]; SAD cohorts, N=24): 0 | Infections and infestations (Nasopharyngitis, rhinitis): number of events [patients affected %] ([1]; SAD cohorts, N=24): 1 [4·2] | Injury, poisoning and procedural complications (procedural dizziness): number of events [patients affected %] ([1]; SAD cohorts, N=24): 0 | Musculosceletal and connective tissue disorders (Back pain): number of events [patients affected %] ([1]; SAD cohorts, N=24): 1 [4·2] | Nervous system disorders (headache, paraestesia): number of events [patients affected %] ([1]; SAD cohorts, N=24): 2 [8·3] | Psychiatric disorders (abnormal dreams): number of events [patients affected %] ([1]; SAD cohorts, N=24): 0 | Number of patients with adverse event(s) [%] [1, 5]: 4 [16·7] | Number of patients with no adverse event [%] [1, 5]: 20 [83·3] | Tolerability and compound-related side effects ([1]; all tested doses (up to 300 mg)): excellent tolerability and no compound-related side effects | Changes in safety assessments (laboratory values, vital signs, physical examinations, ECG) ([1]; any subject included in the trial): no clinically significant individual changes from baseline or notable trends | AUC(0-t) [2]: ≥ 300 ng·h/mL
